Here are results for 83 sequences from the OligoGym collection.

The data set concerns the target KRAS. Particulars: ASO.

“And” between values parts separate entries of the source, which are not always exact repeats. Equal entries are not always repeated. After the bases stand the sugars from the 5' end (letter, count) and the backbone: PS all phosphorothioate, else s phosphorothioate and o phosphodiester by linkage. Methylation of C is not given here. e = 2'-O-(2-methoxyethyl) (MOE); k = constrained ethyl (cEt); d = 2'-deoxy (DNA)

“TAGTGATTAGGTCAAA (sugars kkdddddddddkdkdk, PS)” gave a target mRNA inhibition (A431, 2 µM) of 25%.

For the sequence CCATGCTGTGAAACTC (sugars k3 d10 k3, PS), the target mRNA inhibition (A431, 2 µM) stood at 26%.

Where the note is “A431, 2 µM”, “GTCCAGTGATACTTTC (sugars kkddddddddkekekk, PS)” registered a target mRNA inhibition of 22%.

“ATGCTGTGAAACTCTC (sugars kkddddddddddkeke, PS)” showed a target mRNA inhibition (A431, 2 µM) of 35%.

In turn, “TGCTGTGAAACTCTCT (sugars kkdddddddddkekek, PS)” displayed a target mRNA inhibition (A431, 2 µM) of 0%.

Take TCTGAATTAGTCTCCA (sugars k3 d10 k3, PS): the target mRNA inhibition by setting is: (A431, 0.185 µM) 0%; (A431, 0.556 µM) 26%; (A431, 1.667 µM) 48%; (A431, 2 µM) 62% and 50%; (A431, 5 µM) 68%.

As to TTATGCAATGTTAATT (sugars k3 d10 k3, PS), the target mRNA inhibition (A431, 2 µM) came out at 3%.

Regarding CATGCTGTGAAACTCT (sugars k3 d10 k3, PS), the target mRNA inhibition (A431, 2 µM) came to 8%.

With AAAAATTAATGTCTTG (sugars k3 d10 k3, PS), the target mRNA inhibition (A431, 2 µM) came to 20%.

Turning to GGCAAGATGACACTAA (sugars k3 d10 k3, PS), the target mRNA inhibition (A431, 2 µM) was 30%.

As for CTTGAAAAGTGTTTAT (sugars k3 d10 k3, PS), for the setting “A431, 2 µM”, the target mRNA inhibition was determined as 0%.

As for AACGAGAATGGATATT (sugars k3 d10 k3, PS), the target mRNA inhibition (A431, 2 µM) worked out at 4%.

Where the note is “A431, 2 µM”, “TTAGTGATTAGGTCAA (sugars k3 d9 k3 e1, PS)” registered a target mRNA inhibition of 53%.

Where the note is “A431, 2 µM”, “GTGTTTATGCAATGTT (sugars kddddddddddkekek, PS)” returned a target mRNA inhibition of 53%.

With “CCATTTATGTGACTAG (sugars kkddddddddkekekk, PS)”, the target mRNA inhibition (A431, 2 µM) is 0%.

Under “A431, 2 µM”, “GATTGTGCTGAGCTTG (sugars kkdddddddddkekek, PS)” came in with a target mRNA inhibition of 45%.

Turning to AACCATTCAAAGTTCA (sugars k3 d10 k3, PS), under “A431, 2 µM”, the target mRNA inhibition was found to be 35%.

As to TGTGCAATGGTGACAA (sugars k3 d10 k3, PS), the target mRNA inhibition (A431, 2 µM) came to 28%.

As for TTGTATCTTGTTGAGC (sugars k3 d10 k3, PS), for the setting “A431, 2 µM”, the target mRNA inhibition came to 50%.

TTAATTACTTATGCAG (sugars k3 d10 k3, PS) gave a target mRNA inhibition (A431, 2 µM) of 32%.

The sequence AGATGGTGTAACATAG (sugars k3 d10 k3, PS) showed a target mRNA inhibition (A431, 2 µM) of 39%.

Consider “TCCAGTGATACTTTCA (sugars kkddddddddddkeke, PS)”, for which the target mRNA inhibition (A431, 2 µM) is 39%.

With “TGCTGTGAAACTCTCT (sugars kkddddddddddkeke, PS)”, the target mRNA inhibition (A431, 2 µM) is 30%.

In the case of TTGTGCAATGGTGACA (sugars k3 d10 k3, PS), the target mRNA inhibition (A431, 2 µM) came out at 29%.

On to “TCCATTTATGTGACTA (sugars kkkddddddddkdkdk, PS)”, for which the target mRNA inhibition (A431, 2 µM) is 16%.

On to TAATGTCACAAGCAGA (sugars k3 d10 k3, PS), for which the target mRNA inhibition (A431, 2 µM) amounted to 52%.

The sequence ACTAATAGCAGTGGAA (sugars k3 d10 k3, PS) had a target mRNA inhibition (A431, 2 µM) of 27%.

On to “GTGTTTATGCAATGTT (sugars kdddddddddkekeke, PS)”, for which, for the setting “A431, 2 µM”, the target mRNA inhibition amounted to 41%.

With CTCTATGAAAGCTCAA (sugars k3 d10 k3, PS), for the setting “A431, 2 µM”, the target mRNA inhibition is 39%.

For the setting “A431, 2 µM”, AGATATCCACAGCAGC (sugars k3 d10 k3, PS) displayed a target mRNA inhibition of 58%.

As for “GGAGTCTTTATAGTAA (sugars kkddddddddddkeke, PS)”, the target mRNA inhibition (A431, 0.185 µM) stood at 27%; the target mRNA inhibition (A431, 0.556 µM) worked out at 45%; the target mRNA inhibition (A431, 1.667 µM) was found to be 57%; the target mRNA inhibition (A431, 2 µM) came to 55%; the target mRNA inhibition (A431, 5 µM) came out at 82%.

As to “AGATTGTGCTGAGCTT (sugars kddddddddddkekek, PS)”, the target mRNA inhibition (A431, 2 µM) worked out at 7%.

“CCATTCAAAGTTCACA (sugars k3 d9 k3 e1, PS)” yielded a target mRNA inhibition (A431, 2 µM) of 41%.

The sequence “CCATTTATGTGACTAG (sugars kkkddddddddkekek, PS)” yielded a target mRNA inhibition (A431, 2 µM) of 36%.

As for ATATCCACAGCAGCAG (sugars k3 d10 k3, PS), the target mRNA inhibition (A431, 2 µM) worked out at 39%.

Sequence GCTCTTGATTTGTCAG (sugars k3 d10 k3, PS) returned a target mRNA inhibition (A431, 2 µM) of 23%.

“ATGGTGTAACATAGGT (sugars kkdddddddddkekek, PS)” displayed a target mRNA inhibition (A431, 2 µM) of 53% and a target mRNA inhibition (NCI-H460, 0.037 µM) of 52.7%.

Take “GATTGTGCTGAGCTTG (sugars kkddddddddkekekk, PS)”: the target mRNA inhibition (A431, 2 µM) is 14%.

“TCCATTTATGTGACTA (sugars kddddddddddkekek, PS)”: the target mRNA inhibition (A431, 2 µM) came to 38%.

Regarding “ATGCTGTGAAACTCTC (sugars kkkdddddddddkeke, PS)”, the target mRNA inhibition (A431, 2 µM) was 2%.

Sequence TTACTTATGCAGAGAA (sugars k3 d10 k3, PS) yielded a target mRNA inhibition (A431, 2 µM) of 46%.

In turn, GTGCAATGGTGACAAC (sugars k3 d10 k3, PS) had a target mRNA inhibition (A431, 2 µM) of 38%.

“GGAGTCTTTATAGTAA (sugars kkddddddddkekekk, PS)” showed a target mRNA inhibition (A431, 2 µM) of 25%.

For the sequence ACGAGAATGGATATTC (sugars k3 d10 k3, PS), the target mRNA inhibition (A431, 2 µM) worked out at 29%.

For “TCCATTTATGTGACTA (sugars kkkddddddddkekek, PS)”, for the setting “A431, 2 µM”, the target mRNA inhibition was 0%.

Regarding ATTAGTGATTAGGTCA (sugars k3 d10 k3, PS), the target mRNA inhibition is, setting by setting: (A431, 0.185 µM) 2% and 25%; (A431, 0.556 µM) 37%; (A431, 1.667 µM) 47%; (A431, 2 µM) 55%; (A431, 5 µM) 71%.

Under “A431, 2 µM”, “CCAGTGTTAAGAGAAC (sugars kkddddddddddkeke, PS)” showed a target mRNA inhibition of 42%.

AATTAATGTCTTGGCA (sugars k3 d10 k3, PS) returned a target mRNA inhibition (A431, 2 µM) of 12%.

The sequence “ATGCTGTGAAACTCTC (sugars kkddddddddkekekk, PS)” came in with a target mRNA inhibition (A431, 2 µM) of 25%.

ATAATAATCCCCATTT (sugars k3 d10 k3, PS): under “A431, 2 µM”, the target mRNA inhibition came out at 4%.

For the sequence “TGCTGTGAAACTCTCT (sugars kkddddddddkekekk, PS)”, for the setting “A431, 2 µM”, the target mRNA inhibition was 5%.

GGTAAAAGCTAACAGT (sugars k3 d10 k3, PS): the target mRNA inhibition (A431, 2 µM) was found to be 49%.

AGTTTCACATAGCAAT (sugars k3 d10 k3, PS) registered a target mRNA inhibition (A431, 2 µM) of 38%.

In the case of “TTGATTTGTCAGCAGG (sugars kkdddddddddkekek, PS)”, for the setting “A431, 2 µM”, the target mRNA inhibition is 23% and 22%.

As to GGTGTAACATAGGTTA (sugars k3 d10 k3, PS), the target mRNA inhibition by setting is: (A431, 0.185 µM) 7%; (A431, 0.556 µM) 29%; (A431, 1.667 µM) 47%; (A431, 2 µM) 55% and 50%; (A431, 5 µM) 67%.

Sequence TAGGAGTCTTTATAGT (sugars k3 d10 k3, PS) displayed a target mRNA inhibition (A431, 2 µM) of 41%.

In the case of CCATTCAAAGTTCACA (sugars k3 d10 k3, PS), the target mRNA inhibition (A431, 2 µM) came out at 42%.

Sequence TGCTATAATAATCCCC (sugars k3 d10 k3, PS) showed a target mRNA inhibition (A431, 2 µM) of 43%.

For the sequence AAATTAGTGATTAGGT (sugars k3 d10 k3, PS), where the note is “A431, 2 µM”, the target mRNA inhibition was determined as 5%.

For the setting “A431, 2 µM”, “GTCCAGTGATACTTTC (sugars k3 d9 k3 e1, PS)” registered a target mRNA inhibition of 48%.

Take CACTTCATTGTTTAAA (sugars k3 d10 k3, PS): for the setting “A431, 2 µM”, the target mRNA inhibition worked out at 12%.

For the setting “A431, 2 µM”, “ATGGTGTAACATAGGT (sugars kkkdddddddddkeke, PS)” yielded a target mRNA inhibition of 43%.

Turning to GGGAATTACAAGTATT (sugars k3 d10 k3, PS), where the note is “A431, 2 µM”, the target mRNA inhibition came to 28%.

The sequence TATAATAATCCCCATT (sugars k3 d10 k3, PS) showed a target mRNA inhibition (A431, 2 µM) of 7%.

In turn, “ATGGTGTAACATAGGT (sugars kkddddddddddkeke, PS)” showed a target mRNA inhibition (A431, 0.185 µM) of 22%; a target mRNA inhibition (A431, 0.556 µM) of 39%; a target mRNA inhibition (A431, 1.667 µM) of 60%; a target mRNA inhibition (A431, 2 µM) of 65%; a target mRNA inhibition (A431, 5 µM) of 69%.

Where the note is “A431, 2 µM”, “CCAGTGATACTTTCAC (sugars kkddddddddkekekk, PS)” came in with a target mRNA inhibition of 17%.

“AGGAGTCTTTATAGTA (sugars kkddddddddkekekk, PS)” had a target mRNA inhibition (A431, 2 µM) of 21%.

For the sequence TCATTGTTTAAAAAAA (sugars k3 d10 k3, PS), the target mRNA inhibition (A431, 2 µM) amounted to 0%.

“AGTGATTAGGTCAAAT (sugars kkddddddddkekekk, PS)” displayed a target mRNA inhibition (A431, 2 µM) of 46%.

On to “GTGTGACTCAGTTAAA (sugars kdddddddddkekeke, PS)”, for which the target mRNA inhibition (A431, 2 µM) stood at 25%.

AAAAGCTATTAGGAGT (sugars k3 d10 k3, PS): the target mRNA inhibition (A431, 2 µM) was 25%.

As for “AGTGTGACTCAGTTAA (sugars kkddddddddddkeke, PS)”, the target mRNA inhibition (A431, 2 µM) turned out to be 41%.

In the case of “ATGGTGTAACATAGGT (sugars kkkddddddddkdkdk, PS)”, where the note is “A431, 2 µM”, the target mRNA inhibition was found to be 36%.

Regarding TTAAAAAAAAAATTAA (sugars k3 d10 k3, PS), the target mRNA inhibition (A431, 2 µM) was determined as 0%.

With CATTTCTGATGTGACT (sugars k3 d10 k3, PS), for the setting “A431, 2 µM”, the target mRNA inhibition was 32%.

As to CAGACTTGAAAAGTGT (sugars k3 d10 k3, PS), the target mRNA inhibition (A431, 2 µM) came out at 24%.

In the case of “ACCAGTGTTAAGAGAA (sugars kkddddddddkekekk, PS)”, the target mRNA inhibition (A431, 2 µM) stood at 52%.

Regarding TGTTTATGCAATGTTA (sugars k3 d10 k3, PS), the target mRNA inhibition was 49% and 53% (A431, 0.125 µM); 21% and 0% (A431, 0.185 µM); 40% and 27% (A431, 0.556 µM); 53% (A431, 1.667 µM); 79% and 68% (A431, 5 µM); 41% (NCI-H460, 0.037 µM).

As for ATTACTTTTTGACAAA (sugars k3 d10 k3, PS), the target mRNA inhibition (A431, 2 µM) is 0%.

“ACCATTCAAAGTTCAC (sugars k3 d9 k3 e1, PS)” had a target mRNA inhibition (A431, 2 µM) of 42%.

Where the note is “A431, 2 µM”, TGTTTAAAAAAAAAAT (sugars k3 d10 k3, PS) registered a target mRNA inhibition of 2%.

Turning to “CAGTGTGACTCAGTTA (sugars kkddddddddddkeke, PS)”, the target mRNA inhibition (A431, 2 µM) stood at 51%.

On to “CAGTGTTAAGAGAACT (sugars kdddddddddkekeke, PS)”, for which the target mRNA inhibition (A431, 2 µM) was found to be 40%.
